Laboratory results reported in patent US20260250325A1, “Antiviral Polypeptide Membrane Fusion Inhibitor, and Preparation Method and Application Thereof” (priority 2025, published 2026).
pEC50, pKd: −log10 of the molar value. Where a SMILES comes first, the peptide text is derived from it. The star is where a group is joined. Succinyl(4-O-cholesteryl) = CC(C)CCC[C@@H](C)[C@H]1CC[C@H]2[C@@H]3CC=C4C[C@@H](OC(=O)CCC(=O)*)CC[C@]4(C)[C@H]3CC[C@]12C

Experiments:
hPIV3 C243 virus strain = format: cell-based, hPIV; details: LLC-MK2 cells, hPIV3 C243, plaque reduction; read-out: EC50 against hPIV3 virus
Procedure, shortened: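 LLC-MK2 cells (40,000/well) infected with about 200 PFU of virus preincubated 1 h with the sample, then overlaid with 0.8% CMC medium containing the sample (0.5% DMSO) for 1 day at 37 °C. Plaques immunostained with TrueBlue and counted; 8 concentrations in duplicate, EC50 from a four-parameter fit.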

hPIV-N51 (139-189) = target: T1, hPIV-N51 (139-189) (Human parainfluenza 3 virus, UniProt P06828); assay: SPR affinity to hPIV-N51 coupled on CM5 chip; format: binding
T1 construct: hPIV-N51 (139-189)

hMPV-N46 (127-172) = target: T2, hMPV-N46 (127-172) (Human metapneumovirus, UniProt Q6WB98); assay: SPR affinity to hMPV-N46 coupled on CM5 chip; format: binding
T2 construct: hMPV-N46 (127-172)
T2 sequence (Q6WB98 127-172): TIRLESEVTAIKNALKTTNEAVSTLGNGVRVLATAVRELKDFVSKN

T1 sequence (P06828 139-189): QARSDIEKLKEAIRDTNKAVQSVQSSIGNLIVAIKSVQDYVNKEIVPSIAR

Molecule	pEC50 (hPIV3 C243 virus strain)	pKd (hPIV-N51 (139-189))	pKd (hMPV-N46 (127-172))
CC[C@H](C)[C@H](NC(=O)[C@H](CCCCN)NC(=O)[C@H](CCCCN)NC(=O)[C@H](CC(C)C)NC(=O)[C@H](CO)NC(=O)[C@H](CCC(=O)O)NC(=O)[C@H](CCC(=O)O)NC(=O)[C@@H](NC(=O)[C@H](CCCCN)NC(=O)[C@H](CCCCN)NC(=O)[C@H](CC(N)=O)NC(=O)[C@@H](NC(=O)[C@H](CCC(=O)O)NC(=O)[C@H](CCC(=O)O)NC(=O)[C@@H](NC(=O)[C@H](CCCCN)NC(=O)[C@H](CCCCN)NC(=O)[C@H](CC(=O)O)NC(=O)[C@H](Cc1ccccc1)NC(=O)[C@H](CCC(=O)O)NC(=O)[C@H](CC(=O)O)NC(=O)[C@H](Cc1c[nH]c2ccccc12)NC(C)=O)[C@@H](C)CC)C(C)C)[C@@H](C)CC)C(=O)N[C@@H](CCC(=O)O)C(=O)N[C@@H](CCC(=O)O)C(=O)N[C@@H](CO)C(=O)N[C@@H](CC(=O)O)C(=O)N[C@@H](CCCCN)C(=O)N[C@@H](CCCCN)C(=O)N[C@@H](CC(C)C)C(=O)N[C@@H](Cc1c[nH]cn1)C(=O)N[C@@H](CC(N)=O)C(=O)N[C@H](C(=O)N[C@@H](CCC(=O)O)C(=O)N[C@@H](C)C(=O)N[C@@H](C)C(=O)N[C@@H](C)C(=O)N[C@@H](CCCCN)C(=O)N[C@@H](CCCCNC(=O)CCC(=O)O[C@H]1CC[C@@]2(C)C(=CC[C@H]3[C@@H]4CC[C@H]([C@H](C)CCCC(C)C)[C@@]4(C)CC[C@@H]32)C1)C(N)=O)C(C)C [Compound 44] (Ac-WDEFDKKIEEVNKKIEESLKKIEESDKKLHNVEAAAKK(Succinyl(4-O-cholesteryl))-NH2)	7.55	5.16	6.83
CC[C@H](C)[C@H](NC(=O)[C@H](CO)NC(=O)[C@H](C)NC(=O)[C@H](CC(=O)O)NC(=O)[C@H](Cc1ccccc1)NC(=O)[C@H](CCC(=O)O)NC(=O)[C@H](CC(=O)O)NC(=O)[C@H](Cc1c[nH]c2ccccc12)NC(C)=O)C(=O)N[C@@H](CO)C(=O)N[C@@H](CCC(N)=O)C(=O)N[C@H](C(=O)N[C@@H](CC(N)=O)C(=O)N[C@@H](CCC(=O)O)C(=O)N[C@@H](CCCCN)C(=O)N[C@H](C(=O)N[C@@H](CC(N)=O)C(=O)N[C@@H](CCC(N)=O)C(=O)N[C@@H](CO)C(=O)N[C@@H](CC(C)C)C(=O)N[C@@H](CCC(=O)O)C(=O)N[C@@H](CCC(=O)O)C(=O)N[C@H](C(=O)N[C@@H](CCCNC(=N)N)C(=O)N[C@@H](CCCCN)C(=O)N[C@@H](CO)C(=O)N[C@@H](CC(=O)O)C(=O)N[C@@H](CCC(=O)O)C(=O)N[C@@H](CC(C)C)C(=O)N[C@@H](CC(C)C)C(=O)N[C@@H](Cc1c[nH]cn1)C(=O)N[C@@H](CC(N)=O)C(=O)N[C@@H](CCC(=O)O)C(=O)N[C@@H](C)C(=O)N[C@@H](C)C(=O)N[C@@H](C)C(=O)N[C@@H](CCCCN)C(=O)N[C@@H](CCCCNC(=O)CCC(=O)O[C@H]1CC[C@@]2(C)C(=CC[C@H]3[C@@H]4CC[C@H]([C@H](C)CCCC(C)C)[C@@]4(C)CC[C@@H]32)C1)C(N)=O)[C@@H](C)CC)[C@@H](C)CC)C(C)C [Compound 45] (Ac-WDEFDASISQVNEKINQSLEEIRKSDELLHNEAAAKK(Succinyl(4-O-cholesteryl))-NH2)	7.44	3.75	4.15
CC[C@H](C)[C@H](NC(=O)[C@H](CCCCN)NC(=O)[C@H](CCCCN)NC(=O)[C@H](CC(C)C)NC(=O)[C@H](CO)NC(=O)[C@H](CCC(N)=O)NC(=O)[C@H](CC(N)=O)NC(=O)[C@@H](NC(=O)[C@H](CCCCN)NC(=O)[C@H](CCCCN)NC(=O)[C@H](CC(=O)O)NC(=O)[C@H](Cc1ccccc1)NC(=O)[C@H](CCC(=O)O)NC(=O)[C@@H](NC(=O)[C@H](CCCCN)NC(=O)[C@H](CCCCN)NC(=O)[C@H](CC(N)=O)NC(=O)[C@@H](NC(=O)[C@H](CC(C)C)NC(=O)[C@H](CCC(=O)O)NC(=O)[C@H](CC(=O)O)NC(=O)[C@H](CO)NC(C)=O)C(C)C)[C@@H](C)CC)[C@@H](C)CC)C(=O)N[C@@H](CCC(=O)O)C(=O)N[C@@H](CCC(=O)O)C(=O)N[C@@H](CO)C(=O)N[C@@H](CC(=O)O)C(=O)N[C@@H](CCCCN)C(=O)N[C@@H](CCCCN)C(=O)N[C@@H](CCCCN)C(=O)N[C@@H](CC(C)C)C(=O)N[C@@H](CCC(=O)O)C(=O)N[C@@H](C)C(=O)N[C@@H](C)C(=O)N[C@@H](C)C(=O)N[C@@H](CCCCN)C(=O)N[C@@H](CCCCN)C(N)=O [Compound 51] (Ac-SDELVNKKIEFDKKINQSLKKIEESDKKKLEAAAKK-NH2)	7.73	7.29	7.84
Ac-FDEEISQVNEKINQSLAFIRKSDELLHNVNAGKSTTEAAAKK(Succinyl(4-O-cholesteryl))-NH2 [Compound 26]	8.87	5.59	5.67
Ac-LVKKIDEFDASISQVNEKINQSLEEIRKSDELLHNVGSGSGK(Succinyl(4-O-cholesteryl))-NH2 [Compound 29]	7.58	5.76	7.32
Ac-WDEFDASISQVNEKINQSLEEIRKSDELLHNVNAGLGSGSGK(Succinyl(4-O-cholesteryl))-NH2 [Compound 27]	7.57	6.09	5.53
Ac-WDEFDASISQVNEKINQSLEEIRKSDELLHNVNALEAAAKK(Succinyl(4-O-cholesteryl))-NH2 [Compound 38]	7.58	4.61	6.41
